Measurements as given in the supplement of paper PMC11208160.

Assay: recombinant UMI read abundance after kanamycin selection (control-corrected) (log10(CPM+1)); higher = more efficient recombination; extreme values may be limits of the assay; sequences stand for … in AGTGCAGAGAAAATCGGCCAGTTTTCTCTGCCTGCAGTCCGCATGCCGTGGGACCCCTTGGGTTCTAACCTGTTGCCTAGATTTATGCAGCGGACTGCCTTTCTCCCAAAGTGATAAACCGG…AGGTTGGTTTCACT; site = the 11-nt donor
Protocol: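 Pooled E. coli donor-specificity screen for the IS621 bridge recombinase. Each library member carries a reprogrammed 11-nt donor and a full-length LE bridge RNA expressed in cis from the natural promoter, with a paired donor-binding loop (8-nt LDG + 4-nt RDG) and a target-binding loop fixed to T5. It is co-electroporated with a T5 target plasmid; recombinase is induced with 0.07 mM IPTG and recombinants are selected on kanamycin. UMIs are counted as CPM, averaged over two biological replicates and corrected by the unselected control. Molecule = full bridge RNA written as DNA, built from the T5 scaffold: LDG = donor specificity nt 1-8, RDG = reverse complement of nt 8-11.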
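Also: IS621 bridge recombinase in Escherichia coli cells against a fixed T5 target plasmid.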

| Sequence | recombinant UMI read abundance (log10) |
| --- | --- |
| ACTGAGACATGGACCGGTTTTCCCGGTAATCCGTATTTGGT (site ACTGAGACTAC) | 1.53 |
| ACTGAGACATGGACCGGTTTTCCCGGTAATCCGTATTTGGT (site AGTGAGACTAC) | 0.0694 |
| ACTGAGACATGGACCGGTTTTCCCGGTAATCCGTATTTGGT (site ATTGAGACTAC) | 0.541 |
| ACTGATGCATGGACCGGTTTTCCCGGTAATCCGTATTTGAC (site ACTGATGCTGT) | 2.08 |
| ACTGCACCATGGACCGGTTTTCCCGGTAATCCGTATTTGAG (site ACTGCACCTCT) | 0.0235 |
| ACTGCTACATGGACCGGTTTTCCCGGTAATCCGTATTTGGT (site ACTGCTACTAC) | 0.194 |
| ACTGTATCATGGACCGGTTTTCCCGGTAATCCGTATTTGCC (site ACAGTATCTTG) | 0 |
| ACTGTATCATGGACCGGTTTTCCCGGTAATCCGTATTTGCC (site ACTGTATCTGG) | 2.92 |
| ACTTACTCATGGACCGGTTTTCCCGGTAATCCGTATTTGAC (site ACTTACTCTGT) | 2.81 |
| ACTTCGACATGGACCGGTTTTCCCGGTAATCCGTATTTGCA (site ACTTCGACTTG) | 1.84 |
| ACTTCTGCATGGACCGGTTTTCCCGGTAATCCGTATTTGCC (site ACTTCTGCTGG) | 1.76 |
| ACTTCTTCATGGACCGGTTTTCCCGGTAATCCGTATTTGTC (site ACTTCTTCTGA) | 0 |
| ACTTGCTCATGGACCGGTTTTCCCGGTAATCCGTATTTGTT (site ACTTGCTCTAA) | 0.824 |
| AGAAAAGCATGGACCGGTTTTCCCGGTAATCCGTATTTGCT (site AGAAAAGCTAG) | 2.12 |
| AGAAAAGCATGGACCGGTTTTCCCGGTAATCCGTATTTGCT (site AGAAACGCTAG) | 0.464 |
| AGAAAAGCATGGACCGGTTTTCCCGGTAATCCGTATTTGCT (site AGAAAGGCTAG) | 1.38 |
| AGAAAAGCATGGACCGGTTTTCCCGGTAATCCGTATTTGCT (site AGAAATGCTAG) | 0 |
| AGAAAGACATGGACCGGTTTTCCCGGTAATCCGTATTTGTA (site AGAAAGACTTA) | 2.51 |
| AGAAAGACATGGACCGGTTTTCCCGGTAATCCGTATTTGTA (site AGGAAGACTTG) | 0 |
| AGAAAGCCATGGACCGGTTTTCCCGGTAATCCGTATTTGCT (site AGAAAGACTAG) | 0 |
| AGAAAGCCATGGACCGGTTTTCCCGGTAATCCGTATTTGCT (site AGAAAGCCTAG) | 0 |
| AGAAAGCCATGGACCGGTTTTCCCGGTAATCCGTATTTGCT (site AGAAAGGCTAG) | 0 |
| AGAAAGCCATGGACCGGTTTTCCCGGTAATCCGTATTTGCT (site AGAAAGTCTAG) | 2.3 |
| AGAACAACATGGACCGGTTTTCCCGGTAATCCGTATTTGAT (site AGAACAACTAT) | 1.63 |

| Sequence | recombinant UMI read abundance (log10) |
| --- | --- |
| AGAACAACATGGACCGGTTTTCCCGGTAATCCGTATTTGCT (site TTTGTCCCTCC) | 0.00956 |
| AGAACATCATGGACCGGTTTTCCCGGTAATCCGTATTTGCG (site AGAACATCTCG) | 2.3 |
| AGAACCCCATGGACCGGTTTTCCCGGTAATCCGTATTTGGT (site AGAACCCCTAC) | 0.545 |
| AGAACGGCATGGACCGGTTTTCCCGGTAATCCGTATTTGCT (site AGAAAGGCTAG) | 1.08 |
| AGAACGGCATGGACCGGTTTTCCCGGTAATCCGTATTTGCT (site AGAACGGCTAG) | 2.35 |
| AGAACGGCATGGACCGGTTTTCCCGGTAATCCGTATTTGCT (site AGAAGGGCTAG) | 0 |
| AGAACGGCATGGACCGGTTTTCCCGGTAATCCGTATTTGCT (site AGAATGGCTAG) | 0 |
| AGAACTACATGGACCGGTTTTCCCGGTAATCCGTATTTGAC (site AGAACTACTGT) | 2.15 |
| AGAACTACATGGACCGGTTTTCCCGGTAATCCGTATTTGAC (site AGCACTACTGT) | 0 |
| AGAACTACATGGACCGGTTTTCCCGGTAATCCGTATTTGAC (site AGGACTACTGT) | 0.849 |
| AGAACTACATGGACCGGTTTTCCCGGTAATCCGTATTTGAC (site AGTACTACTGT) | 1.37 |
| AGAAGAGCATGGACCGGTTTTCCCGGTAATCCGTATTTGGA (site AGAAGAGCTTC) | 1.81 |
| AGAAGGGCATGGACCGGTTTTCCCGGTAATCCGTATTTGAG (site AGAAGGGCTCT) | 1.64 |
| AGAAGGGCATGGACCGGTTTTCCCGGTAATCCGTATTTGCT (site AGAAAGGCTAG) | 1.73 |
| AGAAGGGCATGGACCGGTTTTCCCGGTAATCCGTATTTGCT (site AGAACGGCTAG) | 0.0144 |
| AGAAGGGCATGGACCGGTTTTCCCGGTAATCCGTATTTGCT (site AGAAGGGCTAG) | 2.64 |
| AGAAGGGCATGGACCGGTTTTCCCGGTAATCCGTATTTGCT (site AGAATGGCTAG) | 0.25 |
| AGAAGTCCATGGACCGGTTTTCCCGGTAATCCGTATTTGAA (site AGAAGTCCTTT) | 1.33 |
| AGACAATCATGGACCGGTTTTCCCGGTAATCCGTATTTGAG (site AGACAATCTCT) | 2.98 |
| AGACAATCATGGACCGGTTTTCCCGGTAATCCGTATTTGTA (site AGACAATCTTA) | 2.63 |
| AGACACTCATGGACCGGTTTTCCCGGTAATCCGTATTTGGT (site AGACACTCTAC) | 2.78 |
| AGACAGTCATGGACCGGTTTTCCCGGTAATCCGTATTTGAT (site AGACAGTCTAT) | 2.94 |
| AGACATCCATGGACCGGTTTTCCCGGTAATCCGTATTTGAC (site AAACATCCTGT) | 0 |
| AGACATCCATGGACCGGTTTTCCCGGTAATCCGTATTTGAC (site ACACATCCTGT) | 0.237 |

| Sequence | recombinant UMI read abundance (log10) |
| --- | --- |
| AGACATCCATGGACCGGTTTTCCCGGTAATCCGTATTTGAC (site AGACATCCTGT) | 0 |
| AGACATCCATGGACCGGTTTTCCCGGTAATCCGTATTTGAC (site ATACATCCTGT) | 0 |
| AGACATGCATGGACCGGTTTTCCCGGTAATCCGTATTTGCC (site AGACATGCTGG) | 3.01 |
| AGACGAACATGGACCGGTTTTCCCGGTAATCCGTATTTGTC (site AAACGAACTGA) | 0 |
| AGACGAACATGGACCGGTTTTCCCGGTAATCCGTATTTGTC (site ACACGAACTGA) | 0 |
| AGACGAACATGGACCGGTTTTCCCGGTAATCCGTATTTGTC (site AGACGAACTGA) | 1.35 |
| AGACGAACATGGACCGGTTTTCCCGGTAATCCGTATTTGTC (site ATACGAACTGA) | 0.731 |
| AGACGGGCATGGACCGGTTTTCCCGGTAATCCGTATTTGTC (site AGACGGGCTGA) | 2.3 |
| AGAGCATCATGGACCGGTTTTCCCGGTAATCCGTATTTGGT (site AGAGCATCTAC) | 2.89 |
| AGAGTAACATGGACCGGTTTTCCCGGTAATCCGTATTTGCA (site AGAGTAACTTG) | 2.71 |
| AGAGTATCATGGACCGGTTTTCCCGGTAATCCGTATTTGCA (site AAAGTATCTTG) | 2.57 |
| AGAGTATCATGGACCGGTTTTCCCGGTAATCCGTATTTGCA (site ACAGTATCTTG) | 2.7 |
| AGAGTATCATGGACCGGTTTTCCCGGTAATCCGTATTTGCA (site AGAGTATCTTG) | 3.29 |
| AGAGTATCATGGACCGGTTTTCCCGGTAATCCGTATTTGCA (site ATAGTATCTTG) | 1.83 |
| AGAGTATCATGGACCGGTTTTCCCGGTAATCCGTATTTGCC (site ACAGTATCTTG) | 0 |
| AGAGTATCATGGACCGGTTTTCCCGGTAATCCGTATTTGCC (site AGAGTATCTGG) | 2.98 |
| AGAGTCACATGGACCGGTTTTCCCGGTAATCCGTATTTGAG (site AGAGTCACTCT) | 2.34 |
| AGAGTGCCATGGACCGGTTTTCCCGGTAATCCGTATTTGGG (site AGAGTGCCTCC) | 0.0257 |
| AGATAATCATGGACCGGTTTTCCCGGTAATCCGTATTTGCG (site AGATAATCTCG) | 2.61 |
| AGATAGACATGGACCGGTTTTCCCGGTAATCCGTATTTGCC (site AGATAGACTGG) | 3.03 |
| AGATAGACATGGACCGGTTTTCCCGGTAATCCGTATTTGCC (site CGATAGACTGG) | 1.36 |
| AGATAGACATGGACCGGTTTTCCCGGTAATCCGTATTTGCC (site GGATAGACTGG) | 1.35 |
| AGATAGACATGGACCGGTTTTCCCGGTAATCCGTATTTGCC (site TGATAGACTGG) | 2.34 |
| AGATAGGCATGGACCGGTTTTCCCGGTAATCCGTATTTGCT (site AGAAAGGCTAG) | 0.622 |
